1 compound from patent US20250320556A1, “METHODS AND RELATED ASPECTS FOR DIGITAL MULTI-TEMPERATURE FLUOROMETRIC DETECTION” (THE JOHNS HOPKINS UNIVERSITY, priority 2024, published 2025) can be followed below.

One test relates to H520 cell line. In words: Hypomethylating drug treatment of H520 cells, methylation read out by 15-plex FLAP-Melt. The following applies: 500 nM, course of 5 days. It counts as cell-based, human. Here is the method: (§1) FIGS. 24A-24D. Methylation analysis in Aza-treated cell lines. Normalized methylation levels in untreated and 500 nM Aza-treated cells for H23 (A) and H520 (B) cell lines. Relative methylation changes in Aza-treated cells, normalized to untreated controls, are shown as clustered bar plots. Each cluster represents a loci from the 15-plex panel, with bars indicating different time points. (C) H23 cell line. (D) H520 cell line.
(§2) A notable application of digital PCR-based cfDNA tests is longitudinal disease progression monitoring over and after a course of treatment due to the quantification capability of the technology. Next, we sought to evaluate the performance of our assay in detecting multiple methylation biomarkers in real biological samples with a focus on the ability of our assay to quantify methylation level changes. We started with two cancer cell lines, H23 and H520, derived from lung tissues of NSCLC patients. To replicate a typical treatment monitoring scenario, we conducted hypomethylating drug treatment on the cell lines using 5-Azacytidine (5-Aza), a drug that can irreversibly bind to DNA methyltransferase after being incorporated into DNA and inhibits its activity. H520 and H23 were treated with 5-Aza at 500 nM over a course of 5 and 7 days, respectively. […]

The test system of the next test is H23 cell line. In words: Hypomethylating drug treatment of H23 cells, methylation read out by 15-plex FLAP-Melt. The following applies: 500 nM, course of 7 days. It counts as cell-based, human. Here is the method: as §1, §2

As to `Nc1ncn([C@@H]2O[C@H](CO)[C@@H](O)[C@H]2O)c(=O)n1` [5-Aza, 5-Azacytidine], the “confluency rate of treated cells compared with untreated cells” value in the test with H520 cell line and in the test with H23 cell line was “much lower” throughout. The “methylation levels of targets (15-plex panel) in treated cells” value in the test on H520 cell line (vs untreated cells) is on record as “decreased overtime”. Further, the “methylation level of targets (15-plex panel) in treated cells” value in the test with H23 cell line (vs untreated cells, majority of the targets) is recorded as “decreasing trend”.
